Test results published in ChEMBL document CHEMBL5113406, “Structure-based discovery and development of novel O-GlcNAcase inhibitors for the treatment of Alzheimer's disease” (Eur J Med Chem, 2022).
Active and inactive are the calls of the source. No cut-off for these calls is given here.

What was measured:
[1] = Cytotoxicity against mouse HT-22 cells assessed as cell viability at 10 uM after 18 hrs by MTT assay; format: toxicity, cell-based; conditions: read-out: Activity
[2] = molecular target: T1, Hexosaminidase D (Homo sapiens) (UniProt Q8WVB3); assay: Inhibition of human recombinant beta-hexosaminidase at 10 uM pretreated with compound followed by 4-nitrophenyl Nacetyl-beta-D-glucosaminide substrate addition by fluorometer
T1 sequence (whole entry): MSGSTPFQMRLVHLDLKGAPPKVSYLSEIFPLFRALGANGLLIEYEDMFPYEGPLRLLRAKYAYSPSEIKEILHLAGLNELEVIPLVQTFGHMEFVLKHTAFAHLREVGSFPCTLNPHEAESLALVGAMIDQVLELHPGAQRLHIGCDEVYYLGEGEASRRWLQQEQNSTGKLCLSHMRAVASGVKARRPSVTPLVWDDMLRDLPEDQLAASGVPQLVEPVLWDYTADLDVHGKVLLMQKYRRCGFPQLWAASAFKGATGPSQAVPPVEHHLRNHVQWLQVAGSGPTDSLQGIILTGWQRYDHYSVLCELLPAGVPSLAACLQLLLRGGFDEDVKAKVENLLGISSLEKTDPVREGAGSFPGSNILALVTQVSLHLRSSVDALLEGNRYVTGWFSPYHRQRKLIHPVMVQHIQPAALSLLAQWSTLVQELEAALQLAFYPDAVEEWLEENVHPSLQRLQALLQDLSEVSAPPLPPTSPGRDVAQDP

Protein O-GlcNAcase = molecular target: T2, Protein O-GlcNAcase (Homo sapiens, UniProt O60502); assay: Inhibition of human recombinant OGA pretreated for 20 mins followed by 4-Methylumbelliferyl N-acetyl-(3-D-glucosaminide substrate addition by fluorometer
T2 sequence (O60502 whole entry): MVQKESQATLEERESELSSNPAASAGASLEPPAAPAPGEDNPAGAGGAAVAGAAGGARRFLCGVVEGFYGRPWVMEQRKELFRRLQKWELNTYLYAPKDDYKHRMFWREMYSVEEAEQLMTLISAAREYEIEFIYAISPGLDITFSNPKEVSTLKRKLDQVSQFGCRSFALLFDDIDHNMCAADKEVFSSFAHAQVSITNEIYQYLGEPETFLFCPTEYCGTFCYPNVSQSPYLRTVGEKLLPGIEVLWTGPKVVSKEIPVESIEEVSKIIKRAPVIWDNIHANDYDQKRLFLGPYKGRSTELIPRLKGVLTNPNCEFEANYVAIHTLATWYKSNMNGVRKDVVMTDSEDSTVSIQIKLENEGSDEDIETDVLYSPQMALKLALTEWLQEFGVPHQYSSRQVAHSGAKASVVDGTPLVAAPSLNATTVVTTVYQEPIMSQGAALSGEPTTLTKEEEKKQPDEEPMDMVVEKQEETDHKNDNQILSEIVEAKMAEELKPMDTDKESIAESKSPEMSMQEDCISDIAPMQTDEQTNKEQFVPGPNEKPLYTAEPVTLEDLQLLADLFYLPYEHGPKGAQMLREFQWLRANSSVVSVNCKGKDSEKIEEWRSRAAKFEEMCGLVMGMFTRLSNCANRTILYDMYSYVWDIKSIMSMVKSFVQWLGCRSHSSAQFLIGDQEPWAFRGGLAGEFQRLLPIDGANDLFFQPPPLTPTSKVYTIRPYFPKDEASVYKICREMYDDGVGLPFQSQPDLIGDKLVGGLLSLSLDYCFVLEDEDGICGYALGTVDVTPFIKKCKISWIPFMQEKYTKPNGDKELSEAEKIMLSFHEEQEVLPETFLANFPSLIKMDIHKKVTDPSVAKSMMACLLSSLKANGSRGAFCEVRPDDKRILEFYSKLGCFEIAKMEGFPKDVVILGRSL

[3] = Ratio of drug level in ICR mouse brain to plasma at 50 mg/kg, ip after 24 hrs by LC-MS/MS analysis; format: ADME, organism-based; conditions: brain and plasma, read-out: BPR
Mus musculus [4] = assay: Neuroprotective activity against amyloid beta (1 to 42)-induced cognitive impairement in ICR mouse assessed as […] spontaneous alteration at 50 mg/kg, ip for 3 days by Y-maze test; format: functional, organism-based; conditions: time 3.0 day
[5] = AUClast in ICR mouse plasma at 50 mg/kg, ip after 24 hrs by LC-MS/MS analysis; format: ADME, organism-based; set-up: dose 50 mg/kg, time 24 hrs, route ip
[6] = AUClast in ICR mouse brain at 50 mg/kg, ip after 24 hrs by LC-MS/MS analysis; format: ADME, organism-based; set-up: dose 50 mg/kg, time 24 hrs, route ip
Brain [7] = assay: Anti-alzheimer activity in mouse model assessed as decrease in amyloid beta level in brain at 50 mg/kg, ip for 3 days by ELISA relative to control; format: functional; conditions: 72 h, time 3 day
Mus musculus [8] = species on record: Mus musculus; conditions: ICR, dose 50.0 mg/kg, route ip, time 3.0 day
[9] = Half life in ICR mouse plasma at 20 mg/kg, ip after 24 hrs by LC-MS/MS analysis; format: ADME, organism-based
[10] = AUCinfinity in ICR mouse plasma at 20 mg/kg, ip after 24 hrs by LC-MS/MS analysis; format: ADME, organism-based; set-up: time 24 hrs, dose 20 mg/kg, route ip
[11] = AUClast in ICR mouse plasma at 20 mg/kg, ip after 24 hrs by LC-MS/MS analysis; format: ADME, organism-based; set-up: dose 20 mg/kg, time 24 hrs, route ip
[12] = Ratio of drug level in ICR mouse brain to plasma at 20 mg/kg, ip after 24 hrs by LC-MS/MS analysis; format: ADME, organism-based; conditions: brain and plasma, read-out: BPR
Brain [13] = assay: Anti-alzheimer activity in mouse model assessed as decrease in amyloid beta level in brain at 2 mg/kg, ip for 3 days by ELISA relative to control; format: functional; conditions: 72 h, time 3 day
Mus musculus [14] = assay: Neuroprotective activity against amyloid beta (1 to 42)-induced cognitive impairement in ICR mouse assessed as spontaneous alteration at 20 mg/kg, ip for 3 days by Y-maze test; format: functional, organism-based; conditions: time 3.0 day
[15] = AUCt in ICR mouse plasma at 20 mg/kg, ip after 24 hrs by LC-MS/MS analysis; format: ADME, organism-based; set-up: time 24 hrs, dose 20 mg/kg, route ip
Brain [16] = assay: Anti-alzheimer activity in mouse model assessed as decrease in amyloid beta level in brain at 20 mg/kg, ip for 3 days by ELISA relative to control; format: functional; conditions: 72 h, time 3 day
Mus musculus [17] = assay: In vivo inhibition of OGA in amyloid-beta-induced ICR mouse assessed as decrease in 4-MUF level at 2 to 20 mg/kg, ip for 3 days by fluorescence analysis; format: functional, organism-based; conditions: dose 2-20 mg/kg, time 3.0 day
[18] = AUClast in ICR mouse brain at 20 mg/kg, ip after 24 hrs by LC-MS/MS analysis; format: ADME, organism-based; set-up: time 24 hrs, dose 20 mg/kg, route ip
[19] = Cmax in ICR mouse plasma at 20 mg/kg, ip after 24 hrs by LC-MS/MS analysis; format: ADME, organism-based; set-up: dose 20 mg/kg, time 24 hrs, route ip
[20] = Tmax in ICR mouse plasma at 20 mg/kg, ip after 24 hrs by LC-MS/MS analysis; format: ADME, organism-based

SMILES	viability at 18 h, 10 µM [1] [%]	inhibition [2] [%]	IC50 (Protein O-GlcNAcase) [µM]	other results
CC(=O)Nc1ncc(CN2CCCC(C(=O)Nc3ccc(F)cc3)C2)s1 (centres undefined)	120	92.5		
CC(=O)Nc1ncc(CN2CCCC(C(=O)Nc3ccccc3)C2)s1 (centres undefined)			0.45	
COc1ccc(CNC(=O)C=C2CCN(Cc3cnc(NC(C)=O)s3)CC2)cc1	109	89.6		
CC(=O)Nc1ncc(CN2CCC(C(=O)Nc3ccc(F)cc3)CC2)s1			0.16	
CC(=O)Nc1ncc(CN2CCN(CC(=O)Nc3ccc(Cc4ccccc4)cc3)CC2)s1	140	101		
CC(=O)Nc1ncc(CN2CCCC(C(=O)NC3CCCCC3)C2)s1 (centres undefined)			0.23	
CCNC1=N[C@@H]2[C@@H](O)[C@H](O)[C@@H](CO)O[C@@H]2S1	95.9	91.6		Kp at 24 h [3]: 0.07; Activity (Mus musculus [4]): Active; AUC(0-t) at 24 h [5]: 10000 ng·h/mL; AUC(0-t) at 24 h [6]: 590 ng·h/mL; inhibition in vivo at 50 mg/kg (Brain [7]): 62.8%; inhibition (Mus musculus [8]): Active
CC(=O)Nc1ncc(CN2CCN(CC(=O)Nc3ccc(Cl)cc3)CC2C)s1 (centres undefined)	111	92.4		half-life [9]: 91.8 min; AUC(0-inf) [10]: 5210 ng·h/mL; AUC(0-t) at 24 h [11]: 2960 ng·h/mL; Kp at 24 h [12]: 0.2; inhibition in vivo at 2 mg/kg (Brain [13]): 42%; Activity (Mus musculus [14]): Active; AUC(0-t) at 24 h [15]: 4980 ng·h/mL; inhibition in vivo at 20 mg/kg (Brain [16]): 71.8%; inhibition (Mus musculus [17]): Active; AUC(0-t) at 24 h [18]: 590 ng·h/mL; Cmax [19]: 3200 ng/mL; Tmax [20]: 21.6 min
CC(=O)N[C@H]1/C(=N\OC(=O)Nc2ccccc2)O[C@H](CO)[C@@H](O)[C@@H]1O	102	7.6		
CC(=O)Nc1ncc(CN2CCN(CC(=O)Nc3ccccc3)CC2C)s1 (centres undefined)	98.6	103		
CC(=O)Nc1ncc(CN2CCC(=CC(=O)NC3CCCCC3)CC2)s1			0.28	
CC(=O)Nc1ncc(CN2CCC(C(=O)Nc3ccc(C)cc3)CC2)s1			0.3	
CC(=O)Nc1ncc(CN2CCN(CC(=O)Nc3ccc(Cc4ccccc4)cc3)CC2C)s1 (centres undefined)	136	106		
CC(=O)Nc1ncc(CN2CCN(CC(=O)Nc3ccccn3)CC2)s1			1.4	
CC(=O)Nc1ncc(CN2CCN(CC(=O)Nc3ccc(N4CCN(C(C)=O)CC4)cc3)CC2C)s1 (centres undefined)	94.4	73.5		
CC(=O)Nc1ncc(CN2CCN(CC(=O)NC3CCCCC3)CC2C)s1 (centres undefined)	123	101		
